# From patent US20230159532A1, “PARATHYROID HORMONE (PTH) RECEPTOR ANTAGONISTS AND USES THEREOF” (Crinetics Pharmaceuticals, Inc., priority 2021, published 2023)
# Target: T1, human PTHR1 receptor (Homo sapiens, UniProt Q03431)
# T1 construct: purchased Eurofins HTS030M
# T1 sequence (Q03431 27-593): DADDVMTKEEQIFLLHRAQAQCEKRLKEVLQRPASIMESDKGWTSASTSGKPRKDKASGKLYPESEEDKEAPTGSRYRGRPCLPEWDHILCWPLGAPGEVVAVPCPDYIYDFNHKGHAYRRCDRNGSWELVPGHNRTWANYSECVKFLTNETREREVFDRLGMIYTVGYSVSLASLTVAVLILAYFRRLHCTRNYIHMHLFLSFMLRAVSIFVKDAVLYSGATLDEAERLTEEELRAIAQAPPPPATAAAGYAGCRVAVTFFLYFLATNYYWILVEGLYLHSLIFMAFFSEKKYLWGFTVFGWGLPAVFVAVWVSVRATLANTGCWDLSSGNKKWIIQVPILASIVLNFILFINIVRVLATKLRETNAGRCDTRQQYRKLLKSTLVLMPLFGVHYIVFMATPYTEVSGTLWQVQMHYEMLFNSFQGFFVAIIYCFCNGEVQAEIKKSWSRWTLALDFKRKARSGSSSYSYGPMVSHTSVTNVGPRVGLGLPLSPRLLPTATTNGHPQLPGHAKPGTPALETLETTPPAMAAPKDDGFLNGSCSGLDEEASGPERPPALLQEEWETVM
# Test: Competitive antagonist binding assay for hPTH-R1 (radioactive competition binding, SPA beads)
# Conditions: human PTHR1 membranes, [125I]-[Nle8,18,Tyr34]-PTH(1-34) 0.2 nM, 90 minutes at room temperature; read-out: hPTHR1 Ki
# Protocol: Competitive Antagonist Binding Assay Protocol for hPTH-R1 Antagonists:
# The inhibition of binding to the human PTHR1 receptor was measured in a radioactive competition binding assay using the radiolabeled [^125I]-[NLE^8,18, TYR^34]-parathyroid hormone (1-34) ligand (PerkinElmer Cat# NEX244, custom synthesis) as the probe ligand for the receptor. Briefly, membranes from cells expressing the human PTHR1 (Eurofins Cat# HTS030M) were incubated with SPA beads (PerkinElmer Cat# RPNQ0001) in binding assay buffer [50 mM HEPES (Biopioneer Cat# C0113), 5 mM MgCl2 (Sigma Cat# M8266), 10 mM CaCl2 (Fisher Scientific Cat# BP510), 0.1% BSA (Fisher Scientific Cat# BP1600), 0.01% TritonX-100 (Bio-Rad Cat#161-0407), and protease inhibitors (Pierce Cat# A32963); pH 7.4]. Membranes bound to SPA bead were treated with various dilutions of compounds (final concentrations typically 0-10,000 nM), and 0.2 nM radiolabeled ligand in 96-well isoplates (PerkinElmer Cat#6005040) for 90 minutes at room temperature. The radioactive signal was detected using a MicroBetaTriLux 1450 LSC (PerkinElmer). All data manipulations to determine the Ki values were performed using GraphPad v8 (GraphPad, San Diego Calif.).
smiles,measurement,value
"CNCCNc1cc(F)c(N2C(=O)N(C(C)C)c3ncc(F)cc3-c3c(F)cc(Cl)cc32)c(F)c1 [1-113, 13-chloro-10-(2,6-difluoro-4-{[2-(methylamino)ethyl]amino}phenyl)-4,15-difluoro-8-(propan-2-yl)-6,8,10-triazatricyclo[9.4.0.0^2,7]pentadeca-1(11),2(7),3,5,12,14-hexaen-9-one]",Ki,< 100 nM
"CCN1C(=O)N(c2c(F)cc(NCCNCC(=O)O)cc2F)c2cc(Cl)ccc2-c2cc(Cl)cnc21 [1-242, 2-({2-[(4-{4,13-dichloro-8-ethyl-9-oxo-6,8,10-triazatricyclo[9.4.0.0^2,7]pentadeca-1(11),2(7),3,5,12,14-hexaen-10-yl}-3,5-difluorophenyl)amino]ethyl}amino)acetic acid]",Ki,< 100 nM
"CCN1C(=O)N(c2c(F)cc(NCCN(C)CCCC(=O)O)cc2F)c2cc(Cl)ccc2-c2cc(Cl)cnc21 [1-70, 4-({2-[(4-{4,13-dichloro-8-ethyl-9-oxo-6,8,10-triazatricyclo[9.4.0.0^2,7]pentadeca-1(11),2(7),3,5,12,14-hexaen-10-yl}-3,5-difluorophenyl)amino]ethyl}(methyl)amino)butanoic acid]",Ki,< 100 nM
"CCN1C(=O)N(c2c(F)cc(N3CC[C@@H](N)C3)cc2F)c2cc(Cl)ccc2-c2cc(Cl)cnc21 [1-42, 10-{4-[(3R)-3-aminopyrrolidin-1-yl]-2,6-difluorophenyl}-4,13-dichloro-8-ethyl-6,8,10-triazatricyclo[9.4.0.0^2,7]pentadeca-1(11),2(7),3,5,12,14-hexaen-9-one]",Ki,< 100 nM
"CCN1C(=O)N(c2c(F)cc(NC[C@@H]3COCCN3)cc2F)c2cc(C#N)ccc2-c2cc(Cl)cnc21 [1-151, 4-chloro-10-[2,6-difluoro-4-({[(3R)-morpholin-3-yl]methyl}amino)phenyl]-8-ethyl-9-oxo-6,8,10-triazatricyclo[9.4.0.0^2,7]pentadeca-1(11),2(7),3,5,12,14-hexaene-13-carbonitrile]",Ki,< 100 nM
"CCN1C(=O)N(c2c(F)cc(NCCNCCO)cc2F)c2cc(C#N)cc(F)c2-c2cc(Cl)cnc21 [1-100, 4-chloro-10-[2,6-difluoro-4-({2-[(2-hydroxyethyl)amino]ethyl}amino)phenyl]-8-ethyl-15-fluoro-9-oxo-6,8,10-triazatricyclo[9.4.0.0^2,7]pentadeca-1(11),2(7),3,5,12,14-hexaene-13-carbonitrile]",Ki,< 100 nM
"CN1C(=O)N(c2c(F)cc(NCCNCCO)cc2F)c2cc(Cl)ccc2-c2cc(Cl)cnc21 [1-34, 4,13-dichloro-10-[2,6-difluoro-4-({2-[(2-hydroxyethyl)amino]ethyl}amino)phenyl]-8-methyl-6,8,10-triazatricyclo[9.4.0.0^2,7]pentadeca-1(11),2(7),3,5,12,14-hexaen-9-one]",Ki,< 100 nM
"CCN1C(=O)N(c2c(F)cc(NCCNCCO)cc2F)c2cc(Cl)ccc2-c2cc(Cl)cnc21 [1-11, 4,13-dichloro-10-[2,6-difluoro-4-({2-[(2-hydroxyethyl)amino]ethyl}amino)phenyl]-8-ethyl-6,8,10-triazatricyclo[9.4.0.0^2,7]pentadeca-1(11),2(7),3,5,12,14-hexaen-9-one]",Ki,< 100 nM
"CCCN1C(=O)N(c2c(F)cc(NCCNC)cc2F)c2cc(C#N)ccc2-c2cc(F)cnc21 [1-117, 10-(2,6-difluoro-4-{[2-(methylamino)ethyl]amino}phenyl)-4-fluoro-9-oxo-8-propyl-6,8,10-triazatricyclo[9.4.0.0^2,7]pentadeca-1(11),2(7),3,5,12,14-hexaene-13-carbonitrile]",Ki,< 100 nM
"CCN1C(=O)N(c2c(F)cc(NCCNCC(O)CO)cc2F)c2cc(C#N)ccc2-c2cc(Cl)cnc21 (stereo not shown) [1-156, 4-chloro-10-[4-({2-[(2,3-dihydroxypropyl)amino]ethyl}amino)-2,6-difluorophenyl]-8-ethyl-9-oxo-6,8,10-triazatricyclo[9.4.0.0^2,7]pentadeca-1(11),2(7),3,5,12,14-hexaene-13-carbonitrile]",Ki,< 100 nM
"CCN1C(=O)N(c2c(F)cc(NCCNCCCO)cc2F)c2cc(C#N)ccc2-c2cc(Cl)cnc21 [1-190, 4-chloro-10-[2,6-difluoro-4-({2-[(3-hydroxypropyl)amino]ethyl}amino)phenyl]-8-ethyl-9-oxo-6,8,10-triazatricyclo[9.4.0.0^2,7]pentadeca-1(11),2(7),3,5,12,14-hexaene-13-carbonitrile]",Ki,< 100 nM
"CCN1C(=O)N(c2c(F)cc(NCCNC)cc2F)c2cc(Cl)ccc2-c2ccc(C)nc21 [3-1, 13-chloro-10-(2,6-difluoro-4-{[2-(methylamino)ethyl]amino}phenyl)-8-ethyl-5-methyl-6,8,10-triazatricyclo[9.4.0.0^2,7]pentadeca-1(11),2(7),3,5,12,14-hexaen-9-one]",Ki,< 100 nM
"CC(C)N1C(=O)N(c2c(F)cc(NCCNCCO)cc2F)c2cc(C#N)ccc2-c2cc(Cl)cnc21 [1-92, 4-chloro-10-[2,6-difluoro-4-({2-[(2-hydroxyethyl)amino]ethyl}amino)phenyl]-9-oxo-8-(propan-2-yl)-6,8,10-triazatricyclo[9.4.0.0^2,7]pentadeca-1(11),2(7),3,5,12,14-hexaene-13-carbonitrile]",Ki,< 100 nM
"CCN1C(=O)N(c2c(F)cc(NCCNC)cc2F)c2cc(C(F)(F)F)ccc2-c2cc(F)cnc21 [1-66, 10-(2,6-difluoro-4-{[2-(methylamino)ethyl]amino}phenyl)-8-ethyl-4-fluoro-13-(trifluoromethyl)-6,8,10-triazatricyclo[9.4.0.0^2,7]pentadeca-1(11),2(7),3,5,12,14-hexaen-9-one]",Ki,< 100 nM
"CCN1C(=O)N(c2c(F)cc(NCCNCCO)cc2F)c2cc(Cl)ccc2-c2cc(C#N)ncc21 [3-22, 13-chloro-10-[2,6-difluoro-4-({2-[(2-hydroxyethyl)amino]ethyl}amino)phenyl]-8-ethyl-9-oxo-5,8,10-triazatricyclo[9.4.0.0^2,7]pentadeca-1(11),2(7),3,5,12,14-hexaene-4-carbonitrile]",Ki,< 100 nM
"CC(C)N1C(=O)N(c2c(F)cc(NCCNCCO)cc2F)c2cc(Cl)ccc2-c2cc(Cl)cnc21 [1-47, 4,13-dichloro-10-[2,6-difluoro-4-({2-[(2-hydroxyethyl)amino]ethyl}amino)phenyl]-8-(propan-2-yl)-6,8,10-triazatricyclo[9.4.0.0^2,7]pentadeca-1(11),2(7),3,5,12,14-hexaen-9-one]",Ki,< 100 nM
"CCN1C(=O)N(c2c(F)cc(NCCNC)cc2F)c2cc(Cl)ccc2-c2cc(C#N)cnc21 [1-89, 13-chloro-10-(2,6-difluoro-4-{[2-(methylamino)ethyl]amino}phenyl)-8-ethyl-9-oxo-6,8,10-triazatricyclo[9.4.0.0^2,7]pentadeca-1(11),2(7),3,5,12,14-hexaene-4-carbonitrile]",Ki,< 100 nM
"CCN1C(=O)N(c2c(F)cc(NCCNCCO)cc2F)c2cc(C(F)(F)F)ccc2-c2cc(F)cnc21 [1-67, 10-[2,6-difluoro-4-({2-[(2-hydroxyethyl)amino]ethyl}amino)phenyl]-8-ethyl-4-fluoro-13-(trifluoromethyl)-6,8,10-triazatricyclo[9.4.0.0^2,7]pentadeca-1(11),2(7),3,5,12,14-hexaen-9-one]",Ki,< 100 nM
"CCN1C(=O)N(c2c(F)cc(NCCN3CCNCC3)cc2F)c2cc(C#N)ccc2-c2cc(Cl)cnc21 [1-155, 4-chloro-10-(2,6-difluoro-4-{[2-(piperazin-1-yl)ethyl]amino}phenyl)-8-ethyl-9-oxo-6,8,10-triazatricyclo[9.4.0.0^2,7]pentadeca-1(11),2(7),3,5,12,14-hexaene-13-carbonitrile]",Ki,< 100 nM
